Key:
[1] = tested on: M13 CaM-BP; test: GDH-CaM chimera activity, PMS/DCPIP assay with or without CaM-BP; type: biochemical; details: 10 nM chimera, presence vs absence of 1 μM M13 CaM-BP
Description: FIG. 11. Construction of a glucose dehydrogenase (GDH) AND gate biosensor. (A) GDH-CaM 48N activation by CaM-BP. activity analysis of a solution of 10 nM GDH-CaM 48N in the presence of 0.6 mM PMS as electron mediator and 60 μM DCPIP reporter dye in the presence of absence of 1 μM of M13 CaM-BP. (B) GDH-CaM 212N activation by CaM-BP. activity analysis of a solution of 10 nM GDH-CaM 212N in the presence of 0.6 mM PMS as electron mediator and 60 μM DCPIP reporter dye in the presence of absence of 1 μM of M13 CaM-BP. (C) GDH-CaM 48N_212N activation by CaM-BP. activity analysis of a solution of 10 nM GDH-CaM 48N_212N in the presence of 0.6 mM PMS as electron mediator and 60 μM DCPIP reporter dye in the presence of absence of 1 μM of M13 CaM-BP.
A range of insertion mutants of the enzyme glucose dehydrogenase (GDH) and calmodulin were constructed. […] The activity of GDH was monitored using 5-methylphenazinium methyl sulfate (PMS) as an electron mediator and 2,6-dichlorophenolindophenol (DCPIP) as a reporter dye, which upon reduction changes from blue to colourless. The GDH structure (PDB: 1c9u) was analysed and a library of CaM domain insertions was generated. […]
E.coli and purified to homogeneity. […] The activity of the wild type GDH as well as the GDH-CaM chimeras was monitored in the presence or absence of CaM-BP (M13). […]

[2] = tested on: M13 CaM-BP; test: BLA-CaM chimera activity, nitrocefin assay with or without CaM-BP; type: biochemical
Excerpt: FIG. 5. Construction of β-lactamase single insert CaM chimeras (BLA-CaM). (A) A schematic showing th β-lactamase (BLA) assay. BLA degrades the beta-lactam ring nitrocefin. which can be detected by a colour change from yellow to red, for example using a wavelength λ=482 nm (wavelengths of λ=486 nm and λ=480 nm may also be used). […] (C) Activity of purified BLA-CaM chimeras in the presence (interrupted line) or absence (solid line) of saturating concentrations of M13 peptide. The insertion position is indicated by a number and a letter denoting deleted amino acid.
FIG. 6. Construction of B-lactamase double insert CaM chimeras (2CaM-BLA). (A) Activity analysis of a solution of 250 nM BLA-CaM 41G in the presence of 50 μM nitrocefin and in the presence (interrupted line) or absence (solid line) of 1 μM of M13 CaM-BP. […]
A range of insertion mutants of the enzyme β-lactamase (BLA) and calmodulin were constructed. β-lactamase degrades the beta-lactam ring in nitrocefin, which can be detected by a colour change from yellow to red (FIG. 5A). The β-lactamase structure (PDB: 3gmw) was analysed and a range of Calmodulin (BLA-CaM) chimeras were designed. […] The activity of the wild type β-lactamase as well as the BLA-CaM chimeras was monitored in the presence or absence of CaM-BP (M13). […]

Substance | dynamic range [1] | activity retained compared to the wild type enzyme ([2]; 10 nM enzyme, saturating M13 CaM-BP) | dynamic range ([2]; 50 μM nitrocefin, presence vs absence of M13 CaM-BP)
GDH-CaM 48N_212N: Glucose dehydrogenase with calmodulin insertions at positions 48 and 212 | over 20 fold | – | –
BLA-CaM 41G_197E: β-lactamase with calmodulin insertions at positions 41 and 197 | – | about 25% | over 7000 fold

Reference: patent publication US20250075249A1, “AND-GATE ALLOSTERIC PROTEIN-BASED SWITCHES” (QUEENSLAND UNIVERSITY OF TECHNOLOGY, priority 2022, published 2025)
